# Measurements: PubChem BioAssay (NCI)
#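 Exposure lasted 48 hours, with cells grown in 96-well plates and compounds tested at five concentrations. GI50 = concentration required for 50% inhibition of growth. TGI: total growth inhibition.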
# What was measured:
# Assay in all cases: NCI tumour cell line growth inhibition, 48 h
# [1] = system: 786-0 renal
# [2] = system: A498 renal
# [3] = system: A549 NSCLC
# [4] = system: ACHN renal
# [5] = system: BT-549 breast
# [6] = system: CAKI-1 renal
# [7] = system: CCRF-CEM leukemia
# [8] = system: COLO 205 colon
# [9] = system: DU-145 prostate
# [10] = system: EKVX NSCLC
# [11] = system: HCC-2998 colon
# [12] = system: HCT-116 colon
# [13] = system: HCT-15 colon
# [14] = system: HOP-62 NSCLC
# [15] = system: HOP-92 NSCLC
# [16] = system: HS 578T breast
# [17] = system: HT29 colon
# [18] = system: IGROV1 ovarian
# [19] = system: K-562 leukemia
# [20] = system: KM12 colon
# [21] = system: LOX IMVI melanoma
# [22] = system: M14 melanoma
# [23] = system: MALME-3M melanoma
# [24] = system: MCF7 breast
# [25] = system: MDA-MB-231 breast
# [26] = system: MDA-MB-435
# [27] = system: MOLT-4 leukemia
# [28] = system: NCI-H226 lung
# [29] = system: NCI-H23 lung
# [30] = system: NCI-H460 lung
# [31] = system: NCI-H522 lung
# [32] = system: NCI/ADR-RES ovarian
# [33] = system: OVCAR-3 ovarian
# [34] = system: OVCAR-4 ovarian
# [35] = system: OVCAR-5 ovarian
# [36] = system: OVCAR-8 ovarian
# [37] = system: PC-3 prostate
# [38] = system: RPMI-8226 leukemia
# [39] = system: RXF 393 renal
# [40] = system: SF-268 CNS
# [41] = system: SF-295 CNS
# [42] = system: SF-539 CNS
# [43] = system: SK-MEL-2 melanoma
# [44] = system: SK-MEL-28 melanoma
# [45] = system: SK-MEL-5 melanoma
# [46] = system: SK-OV-3 ovarian
# [47] = system: SN12C renal
# [48] = system: SNB-19 CNS
# [49] = system: SNB-75 CNS
# [50] = system: SR leukemia
# [51] = system: SW-620 colon
# [52] = system: T-47D breast
# [53] = system: TK-10 renal
# [54] = system: U251 CNS
# [55] = system: UACC-257 melanoma
# [56] = system: UACC-62 melanoma
# [57] = system: UO-31 renal
structure (smiles),measurement,setting,value
CCN1C(=O)CNc2ncc(-c3ccc(-c4ncn[nH]4)nc3C)nc21,GI50,[1],117 nM
same,TGI,[1],4350 nM
same,GI50,[2],13 nM
same,TGI,[2],61.3 nM
same,GI50,[3],263 nM
same,TGI,[3],7240 nM
same,GI50,[4],140 nM
same,TGI,[4],2160 nM
same,GI50,[5],71.6 nM
same,TGI,[5],695 nM
same,GI50,[6],44.1 nM
same,TGI,[6],576 nM
same,GI50,[7],215 nM
same,TGI,[7],> 34800 nM
same,GI50,[8],160 nM
same,TGI,[8],1720 nM
same,GI50,[9],253 nM
same,TGI,[9],12700 nM
same,GI50,[10],188 nM
same,TGI,[10],5770 nM
same,GI50,[11],338 nM
same,TGI,[11],12400 nM
same,GI50,[12],277 nM
same,TGI,[12],4620 nM
same,GI50,[13],202 nM
same,TGI,[13],10900 nM
same,GI50,[14],140 nM
same,TGI,[14],2460 nM
same,GI50,[15],21.2 nM
same,TGI,[15],168 nM
same,GI50,[16],111 nM
same,TGI,[16],526 nM
same,GI50,[17],317 nM
same,TGI,[17],11600 nM
same,GI50,[18],45 nM
same,TGI,[18],606 nM
same,GI50,[19],358 nM
same,TGI,[19],> 100000 nM
same,GI50,[20],193 nM
same,TGI,[20],11300 nM
same,GI50,[21],205 nM
same,TGI,[21],2470 nM
same,GI50,[22],91.7 nM
same,TGI,[22],2790 nM
same,GI50,[23],22.7 nM
same,TGI,[23],221 nM
same,GI50,[24],51 nM
same,TGI,[24],10700 nM
same,GI50,[25],127 nM
same,TGI,[25],3330 nM
same,GI50,[26],162 nM
same,TGI,[26],1630 nM
same,GI50,[27],139 nM
same,TGI,[27],1540 nM
same,GI50,[28],128 nM
same,TGI,[28],6440 nM
same,GI50,[29],238 nM
same,TGI,[29],8270 nM
same,GI50,[30],118 nM
same,TGI,[30],11300 nM
same,GI50,[31],147 nM
same,TGI,[31],2880 nM
same,GI50,[32],284 nM
same,TGI,[32],3580 nM
same,GI50,[33],189 nM
same,TGI,[33],4490 nM
same,GI50,[34],103 nM
same,TGI,[34],1130 nM
same,GI50,[35],169 nM
same,TGI,[35],8960 nM
same,GI50,[36],385 nM
same,TGI,[36],5230 nM
same,GI50,[37],70.6 nM
same,TGI,[37],1970 nM
same,GI50,[38],45.4 nM
same,TGI,[38],553 nM
same,GI50,[39],47.6 nM
same,TGI,[39],371 nM
same,GI50,[40],235 nM
same,TGI,[40],10200 nM
same,GI50,[41],105 nM
same,TGI,[41],679 nM
same,GI50,[42],144 nM
same,TGI,[42],859 nM
same,GI50,[43],162 nM
same,TGI,[43],711 nM
same,GI50,[44],115 nM
same,TGI,[44],1440 nM
same,GI50,[45],86.4 nM
same,TGI,[45],792 nM
same,GI50,[46],102 nM
same,TGI,[46],617 nM
same,GI50,[47],168 nM
same,TGI,[47],14900 nM
same,GI50,[48],337 nM
same,TGI,[48],6900 nM
same,GI50,[49],36.9 nM
same,TGI,[49],321 nM
same,GI50,[50],253 nM
same,TGI,[50],4090 nM
same,GI50,[51],439 nM
same,TGI,[51],12100 nM
same,GI50,[52],16.9 nM
same,TGI,[52],185 nM
same,GI50,[53],83.3 nM
same,TGI,[53],1360 nM
same,GI50,[54],289 nM
same,TGI,[54],9640 nM
same,GI50,[55],184 nM
same,TGI,[55],2110 nM
same,GI50,[56],77.7 nM
same,TGI,[56],587 nM
same,GI50,[57],24.8 nM
same,TGI,[57],599 nM
